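The concentration for 50% growth inhibition is given as GI50. TGI is the concentration that stops growth completely.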
What was measured:
Assay in all cases: NCI anticancer screen, dose series, 384-well format
786-0 renal = tested on: 786-0 renal
A549 NSCLC = tested on: A549 NSCLC
ACHN renal = tested on: ACHN renal
BT-549 breast = tested on: BT-549 breast
CAKI-1 renal = tested on: CAKI-1 renal
CCRF-CEM leukemia = tested on: CCRF-CEM leukemia
COLO 205 colon = tested on: COLO 205 colon
DU-145 prostate = tested on: DU-145 prostate
EKVX NSCLC = tested on: EKVX NSCLC
HCC-2998 colon = tested on: HCC-2998 colon
HCT-15 colon = tested on: HCT-15 colon
HL-60(TB) leukemia = tested on: HL-60(TB) leukemia
HOP-62 NSCLC = tested on: HOP-62 NSCLC
HOP-92 NSCLC = tested on: HOP-92 NSCLC
HS 578T breast = tested on: HS 578T breast
HT29 colon = tested on: HT29 colon
IGROV1 ovarian = tested on: IGROV1 ovarian
K-562 leukemia = tested on: K-562 leukemia
LOX IMVI melanoma = tested on: LOX IMVI melanoma
M14 melanoma = tested on: M14 melanoma
MCF7 breast = tested on: MCF7 breast
MDA-MB-231 breast = tested on: MDA-MB-231 breast
MDA-MB-468 breast = tested on: MDA-MB-468 breast
NCI-H226 lung = tested on: NCI-H226 lung
NCI-H23 lung = tested on: NCI-H23 lung
NCI-H322M lung = tested on: NCI-H322M lung
NCI-H460 NSCLC = tested on: NCI-H460 NSCLC
NCI-H522 lung = tested on: NCI-H522 lung
NCI/ADR-RES ovarian = tested on: NCI/ADR-RES ovarian
OVCAR-3 ovarian = tested on: OVCAR-3 ovarian
OVCAR-4 ovarian = tested on: OVCAR-4 ovarian
OVCAR-5 ovarian = tested on: OVCAR-5 ovarian
OVCAR-8 ovarian = tested on: OVCAR-8 ovarian
PC-3 prostate = tested on: PC-3 prostate
RPMI-8226 leukemia = tested on: RPMI-8226 leukemia
SF-268 CNS = tested on: SF-268 CNS
SF-295 CNS = tested on: SF-295 CNS
SF-539 CNS = tested on: SF-539 CNS
SK-MEL-28 melanoma = tested on: SK-MEL-28 melanoma
SK-OV-3 ovarian = tested on: SK-OV-3 ovarian
SN12C renal = tested on: SN12C renal
SNB-19 CNS = tested on: SNB-19 CNS
SNB-75 CNS = tested on: SNB-75 CNS
SR leukemia = tested on: SR leukemia
TK-10 renal = tested on: TK-10 renal
UACC-257 melanoma = tested on: UACC-257 melanoma
UO-31 renal = tested on: UO-31 renal

## COCc1c(-c2cc3cc(C)cc(OC)c3s2)c2c(N)ncnn2c1CN1CCNC(=O)C1
786-0 renal
  GI50: 14.2 µM
  TGI: > 93.2 µM
A549 NSCLC
  GI50: 5.49 µM
  TGI: > 100 µM
ACHN renal
  GI50: 6.15 µM
  TGI: > 100 µM
BT-549 breast
  GI50: 385 nM
  TGI: 5.45 µM
CAKI-1 renal
  GI50: 3.41 µM
  TGI: 15.1 µM
CCRF-CEM leukemia
  GI50: 5.68 µM
  TGI: > 52.5 µM
COLO 205 colon
  GI50: 12 µM
  TGI: > 100 µM
DU-145 prostate
  GI50: 6.79 µM
  TGI: > 100 µM
EKVX NSCLC
  GI50: 5.72 µM
  TGI: > 69.8 µM
HCC-2998 colon
  GI50: 19.1 µM
  TGI: > 93.1 µM
HCT-15 colon
  GI50: 5.39 µM
  TGI: > 100 µM
HL-60(TB) leukemia
  GI50: 7.53 µM
  TGI: 21.8 µM
HOP-62 NSCLC
  GI50: 12.8 µM
  TGI: > 100 µM
HOP-92 NSCLC
  GI50: 2000 nM
  TGI: 18.9 µM
HS 578T breast
  GI50: 3.76 µM
  TGI: 22.4 µM
HT29 colon
  GI50: 12 µM
  TGI: > 100 µM
IGROV1 ovarian
  GI50: 4.19 µM
  TGI: 36.8 µM
K-562 leukemia
  GI50: 20.1 µM
  TGI: > 100 µM
LOX IMVI melanoma
  GI50: 5.57 µM
  TGI: 25.6 µM
M14 melanoma
  GI50: 4.75 µM
  TGI: 41 µM
MCF7 breast
  GI50: 5.56 µM
  TGI: > 100 µM
MDA-MB-231 breast
  GI50: 5.63 µM
  TGI: > 72.1 µM
MDA-MB-468 breast
  GI50: 2010 nM
  TGI: 7.39 µM
NCI-H226 lung
  GI50: 1260 nM
  TGI: 21.7 µM
NCI-H23 lung
  GI50: 4.13 µM
  TGI: 28.9 µM
NCI-H322M lung
  GI50: 3.89 µM
  TGI: 36.8 µM
NCI-H460 NSCLC
  GI50: 4.62 µM
  TGI: > 96.2 µM
NCI-H522 lung
  GI50: 3.66 µM
  TGI: 30.6 µM
NCI/ADR-RES ovarian
  GI50: > 100 µM
  TGI: > 100 µM
OVCAR-3 ovarian
  GI50: 5.38 µM
  TGI: > 75.2 µM
OVCAR-4 ovarian
  GI50: 13.9 µM
  TGI: > 100 µM
OVCAR-5 ovarian
  GI50: 10.3 µM
  TGI: > 79.5 µM
OVCAR-8 ovarian
  GI50: 17.8 µM
  TGI: > 100 µM
PC-3 prostate
  GI50: 23.2 µM
  TGI: > 100 µM
RPMI-8226 leukemia
  GI50: 1870 nM
  TGI: 7.59 µM
SF-268 CNS
  GI50: 8.67 µM
  TGI: > 81.6 µM
SF-295 CNS
  GI50: 18.2 µM
  TGI: > 100 µM
SF-539 CNS
  GI50: 6.08 µM
  TGI: > 58.3 µM
SK-MEL-28 melanoma
  GI50: 28.7 µM
  TGI: > 100 µM
SK-OV-3 ovarian
  GI50: 2400 nM
  TGI: 8.99 µM
SN12C renal
  GI50: 7.95 µM
  TGI: > 73.6 µM
SNB-19 CNS
  GI50: 18.5 µM
  TGI: > 100 µM
SNB-75 CNS
  GI50: 1630 nM
  TGI: 20.5 µM
SR leukemia
  GI50: 3.97 µM
  TGI: 12.9 µM
TK-10 renal
  GI50: 7.97 µM
  TGI: 70.3 µM
UACC-257 melanoma
  GI50: 29.9 µM
  TGI: > 100 µM
UO-31 renal
  GI50: 9.39 µM
  TGI: > 100 µM
